Test results reported in patent US9409866B2, “Pyridine-2-amides useful as CB2 agonists” (Hoffmann-La Roche Inc., priority 2012, dated 2016).

What was measured:
human CB2 receptors = human CB2 receptors (Homo sapiens (Human), UniProt P34972); assay: functional cAMP assay, CHO cells expressing human CB2; type: cell-based; settings: read-out: Human CB2 EC50
Outline: (§1)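 CHO cells with human CB1 or CB2 were switched to Krebs Ringer bicarbonate buffer with 1 mM IBMX for 30 min at 30 °C, then given compound for 30 min at 30 °C. cAMP was measured by time-resolved FRET against a cAMP standard curve, and EC50 values were calculated.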

human CB1 receptors = human CB1 receptors (Homo sapiens (Human), UniProt P21554); assay: functional cAMP assay, CHO cells expressing human CB1; type: cell-based; settings: functional cAMP assay, CHO cells expressing human CB1; read-out: Human CB1 EC50
Sequence of human CB1 receptors (P21554 whole entry): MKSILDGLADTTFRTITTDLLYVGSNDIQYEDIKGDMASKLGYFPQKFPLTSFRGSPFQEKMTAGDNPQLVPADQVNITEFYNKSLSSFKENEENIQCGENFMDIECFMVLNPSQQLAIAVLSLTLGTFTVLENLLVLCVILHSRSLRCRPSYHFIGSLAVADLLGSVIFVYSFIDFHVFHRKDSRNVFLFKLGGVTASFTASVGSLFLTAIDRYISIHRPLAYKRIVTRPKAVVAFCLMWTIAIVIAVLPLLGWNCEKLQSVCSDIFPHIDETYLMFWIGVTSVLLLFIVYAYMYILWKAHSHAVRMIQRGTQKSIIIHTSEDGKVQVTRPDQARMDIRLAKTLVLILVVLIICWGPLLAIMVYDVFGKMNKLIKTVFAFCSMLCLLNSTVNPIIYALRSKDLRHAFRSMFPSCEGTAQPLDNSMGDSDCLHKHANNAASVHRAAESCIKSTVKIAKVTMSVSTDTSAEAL
Outline: as §1

Sequence of human CB2 receptors (P34972 whole entry): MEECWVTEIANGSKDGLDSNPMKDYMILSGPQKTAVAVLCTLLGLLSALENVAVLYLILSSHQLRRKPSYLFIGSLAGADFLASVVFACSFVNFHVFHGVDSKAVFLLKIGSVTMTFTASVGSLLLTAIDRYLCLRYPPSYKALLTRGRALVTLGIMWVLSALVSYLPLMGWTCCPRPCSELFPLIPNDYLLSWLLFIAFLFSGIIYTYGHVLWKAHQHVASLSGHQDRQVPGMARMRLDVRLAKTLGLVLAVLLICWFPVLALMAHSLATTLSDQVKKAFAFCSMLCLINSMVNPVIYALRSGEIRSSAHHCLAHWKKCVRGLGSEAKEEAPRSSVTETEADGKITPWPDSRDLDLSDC

Compound	EC50 (human CB2 receptors)	EC50 (human CB1 receptors)
CC(C)(C)[C@H](CO)NC(=O)c1cc(OCC2CC2)c(Cl)cn1 [Example 29, 5-Chloro-4-cyclopropylmethoxy-pyridine-2-carboxylic acid ((R)-1-hydroxymethyl-2,2-dimethyl-propyl)-amide]	64.6 nM	> 10 µM
CC[C@](C)(CO)NC(=O)c1cc(OCC2CC2)c(Cl)cn1 [Example 30, (−)-5-Chloro-4-cyclopropylmethoxy-pyridine-2-carboxylic acid (1-hydroxymethyl-1-methyl-propyl)-amide]	19.2 nM	> 10 µM
COC(=O)C(C)C(C)(C)NC(=O)c1cc(OCC2CC2)c(Cl)cn1 (stereo not drawn) [Example 31, Methyl 3-({[5-chloro-4-(cyclopropylmethoxy)pyridin-2-yl]carbonyl}amino)-2,3-dimethylbutanoate]	9.5 nM	> 10 µM
O=C(NC1(c2nccs2)COC1)c1cc(OCC2CC2)c(Cl)cn1 [Example 32, 5-Chloro-4-cyclopropylmethoxy-pyridine-2-carboxylic acid (3-thiazol-2-yl-oxetan-3-yl)-amide]	74.6 nM	> 10 µM
CCCC(C)(CO)NC(=O)c1cc(OCC2CC2)c(Cl)cn1 (stereo not drawn) [Example 33, 5-Chloro-4-cyclopropylmethoxy-pyridine-2-carboxylic acid (1-hydroxymethyl-1-methyl-butyl)-amide]	24.4 nM	> 10 µM
CNC(=O)[C@@H](C)C(C)(C)NC(=O)c1cc(OCC2CC2)c(Cl)cn1 [Example 34, (−)-5-Chloro-4-cyclopropylmethoxy-pyridine-2-carboxylic acid (1,1-dimethyl-2-methylcarbamoyl-propyl)-amide]	268 nM	> 10 µM
CNC(=O)[C@H](C)C(C)(C)NC(=O)c1cc(OCC2CC2)c(Cl)cn1 [Example 35, (+)-5-Chloro-4-cyclopropylmethoxy-pyridine-2-carboxylic acid (1,1-dimethyl-2-methylcarbamoyl-propyl)-amide]	143 nM	> 10 µM
O=C(NC1(c2ncco2)COC1)c1cc(OCC2CC2)c(Cl)cn1 [Example 36, 5-Chloro-4-cyclopropylmethoxy-pyridine-2-carboxylic acid (3-oxazol-2-yl-oxetan-3-yl)-amide]	51.7 nM	> 10 µM
CCC[C@@](C)(CO)NC(=O)c1cc(OCC2CC2)c(Cl)cn1 [Example 37, (−)-5-Chloro-4-cyclopropylmethoxy-pyridine-2-carboxylic acid (1-hydroxymethyl-1-methyl-butyl)-amide]	16.7 nM	> 10 µM
CC(C)(C)C(NC(=O)c1cc(OCC(F)(F)F)c(Cl)cn1)c1nccs1 (stereo not drawn) [Example 38, 5-Chloro-4-(2,2,2-trifluoro-ethoxy)-pyridine-2-carboxylic acid (2,2-dimethyl-1-thiazol-2-yl-propyl)-amide]	40.8 nM	> 10 µM
CC(C)(C)C(NC(=O)c1cc(OC2COC2)c(Cl)cn1)c1nccs1 (stereo not drawn) [Example 39, 5-Chloro-4-(oxetan-3-yloxy)-pyridine-2-carboxylic acid (2,2-dimethyl-1-thiazol-2-yl-propyl)-amide]	128 nM	> 10 µM
O=C(N[C@@H](c1cccnc1)C(F)(F)F)c1cc(OCc2ccc(F)cc2)c(Cl)cn1 [Example 40, 5-Chloro-4-(4-fluoro-benzyloxy)-pyridine-2-carboxylic acid ((S)-2,2,2-trifluoro-1-pyridin-3-yl-ethyl)-amide]	5 nM	0.0901 µM
O=C(N[C@@H](c1cccnc1)C(F)(F)F)c1cc(Cc2ccc(F)cc2)c(Cl)cn1 [Example 41, 5-Chloro-4-(4-fluoro-benzyl)-pyridine-2-carboxylic acid ((S)-2,2,2-trifluoro-1-pyridin-3-yl-ethyl)-amide]	3.3 nM	0.145 µM
O=C(NC1(c2nccs2)COC1)c1cc(OCC2CC2)c(C2CC2)cn1 [Example 42, 5-Cyclopropyl-4-cyclopropylmethoxy-pyridine-2-carboxylic acid (3-thiazol-2-yl-oxetan-3-yl)-amide]	11.6 nM	> 10 µM
CC(C)(C)C(NC(=O)c1cc(OCC2CC2)c(C2CC2)cn1)c1nccs1 (stereo not drawn) [Example 43, 5-Cyclopropyl-4-cyclopropylmethoxy-pyridine-2-carboxylic acid (2,2-dimethyl-1-thiazol-2-yl-propyl)-amide]	3.2 nM	> 10 µM
Cc1nc(C(C)(NC(=O)c2cc(OCC3CC3)c(C3CC3)cn2)C2CC2)no1 (stereo not drawn) [Example 44, 5-Cyclopropyl-4-cyclopropylmethoxy-pyridine-2-carboxylic acid [1-cyclopropyl-1-(5-methyl-[1,2,4]oxadiazol-3-yl)-ethyl]-amide]	0.7 nM	> 10 µM
CCC(CC)(NC(=O)c1cc(OCC2CC2)c(C2CC2)cn1)C(=O)NC [Example 45, 5-Cyclopropyl-4-cyclopropylmethoxy-pyridine-2-carboxylic acid (1-ethyl-1-methylcarbamoyl-propyl)-amide]	17 nM	> 10 µM

Compound	EC50 (human CB2 receptors)	EC50 (human CB1 receptors)
O=C(NC(c1ccccn1)C(F)(F)F)c1cc(OCC2CC2)c(C2CC2)cn1 (stereo not drawn) [Example 46, 5-Cyclopropyl-4-cyclopropylmethoxy-pyridine-2-carboxylic acid (2,2,2-trifluoro-1-pyridin-2-yl-ethyl)-amide]	6.7 nM	> 10 µM
CC(C)C[C@H](NC(=O)c1cc(OCC2CC2)c(C2CC2)cn1)C(N)=O [Example 47, 5-Cyclopropyl-4-cyclopropylmethoxy-pyridine-2-carboxylic acid ((S)-1-carbamoyl-3-methyl-butyl)-amide]	11.8 nM	> 10 µM
CNC(=O)[C@@H](NC(=O)c1cc(OCC(F)(F)F)c(C2CC2)cn1)C(C)(C)C [Example 48, 5-Cyclopropyl-4-(2,2,2-trifluoro-ethoxy)-pyridine-2-carboxylic acid ((S)-2,2-dimethyl-1-methylcarbamoyl-propyl)-amide]	1.57 nM	0.661 µM
Cc1nc(C(C)(NC(=O)c2cc(OCC(F)(F)F)c(C3CC3)cn2)C2CC2)no1 (stereo not drawn) [Example 49, 5-Cyclopropyl-4-(2,2,2-trifluoro-ethoxy)-pyridine-2-carboxylic acid [1-cyclopropyl-1-(5-methyl-[1,2,4]oxadiazol-3-yl)-ethyl]-amide]	1.7 nM	> 10 µM
CC(C)(C)C(NC(=O)c1cc(OCC(F)(F)F)c(C2CC2)cn1)c1nccs1 (stereo not drawn) [Example 50, 5-Cyclopropyl-4-(2,2,2-trifluoro-ethoxy)-pyridine-2-carboxylic acid (2,2-dimethyl-1-thiazol-2-yl-propyl)-amide]	5.8 nM	> 10 µM
O=C(NC(c1ccccn1)C(F)(F)F)c1cc(OCC(F)(F)F)c(C2CC2)cn1 (stereo not drawn) [Example 51, 5-Cyclopropyl-4-(2,2,2-trifluoro-ethoxy)-pyridine-2-carboxylic acid (2,2,2-trifluoro-1-pyridin-2-yl-ethyl)-amide]	12.2 nM	> 10 µM
CC(C)C[C@H](NC(=O)c1cc(OCC(F)(F)F)c(C2CC2)cn1)C(N)=O [Example 52, 5-Cyclopropyl-4-(2,2,2-trifluoro-ethoxy)-pyridine-2-carboxylic acid ((S)-1-carbamoyl-3-methyl-butyl)-amide]	77.8 nM	> 10 µM
O=C(NC1(CO)CC1)c1cc(OCC2CC2)c(N2CC(F)(F)C2)cn1 [Example 53, 4-Cyclopropylmethoxy-5-(3,3-difluoro-azetidin-1-yl)-pyridine-2-carboxylic acid (1-hydroxymethyl-cyclopropyl)-amide]	72.6 nM	> 10 µM
CCC(CC)(CO)NC(=O)c1cc(OCC(F)(F)F)c(C2CC2)cn1 [Example 54, 5-Cyclopropyl-4-(2,2,2-trifluoro-ethoxy)-pyridine-2-carboxylic acid (1-ethyl-1-hydroxymethyl-propyl)-amide]	18.5 nM	> 10 µM
O=C(NC1(CO)CCCCC1)c1cc(OCC(F)(F)F)c(C2CC2)cn1 [Example 55, 5-Cyclopropyl-4-(2,2,2-trifluoro-ethoxy)-pyridine-2-carboxylic acid (1-hydroxymethyl-cyclohexyl)-amide]	15.7 nM	> 10 µM
O=C(NCC1(O)CCCC1)c1cc(OCC2CC2)c(C2CC2)cn1 [Example 56, 5-Cyclopropyl-4-cyclopropylmethoxy-pyridine-2-carboxylic acid (1-hydroxy-cyclopentylmethyl)-amide]	18.1 nM	> 10 µM
O=C(NCC1(O)CCCCC1)c1cc(OCC2CC2)c(C2CC2)cn1 [Example 57, 5-Cyclopropyl-4-cyclopropylmethoxy-pyridine-2-carboxylic acid (1-hydroxy-cyclohexylmethyl)-amide]	13 nM	> 10 µM
CCC(O)CNC(=O)c1cc(OCC2CC2)c(C2CC2)cn1 (stereo not drawn) [Example 58, 5-Cyclopropyl-4-cyclopropylmethoxy-pyridine-2-carboxylic acid (2-hydroxy-butyl)-amide]	63.7 nM	> 10 µM
CC(C)(O)CNC(=O)c1cc(OCC2CC2)c(C2CC2)cn1 [Example 59, 5-Cyclopropyl-4-cyclopropylmethoxy-pyridine-2-carboxylic acid (2-hydroxy-2-methyl-propyl)-amide]	81.6 nM	> 10 µM
CC(C)(O)CNC(=O)c1cc(OCC(F)(F)F)c(C2CC2)cn1 [Example 60, 5-Cyclopropyl-4-(2,2,2-trifluoro-ethoxy)-pyridine-2-carboxylic acid (2-hydroxy-2-methyl-propyl)-amide]	481 nM	> 10 µM
Cc1nc(C(C)(NC(=O)c2cc(OCC(F)(F)F)c(Cl)cn2)C2CC2)no1 (stereo not drawn) [Example 62, 5-Chloro-4-(2,2,2-trifluoro-ethoxy)-pyridine-2-carboxylic acid [1-cyclopropyl-1-(5-methyl-[1,2,4]oxadiazol-3-yl)-ethyl]-amide]	8.9 nM	> 10 µM
